# According to patent US6753456B2, “Point mutant mice with hypersensitive alpha 4 nicotinic receptors: dopaminergic pathology and increased anxiety” (California Institute of Technology, priority 2000, dated 2004):
# Entries after “also recorded” stand apart in the source; their conditions may differ. Where a name gives a salt, the structure may show the parent alone.
# Legend:
# [1] = molecular target: T1, mutated (α4 Leu9′Ser) rat α4β2 receptors (Rattus norvegicus, UniProt P09483+P12390, L285S); test: Two-electrode voltage clamp, agonist concentration-response of mutated α4β2 receptors expressed in Xenopus oocytes; format: cell-based
# T1 construct: expressed in transfected cells; host or cells: Xenopus oocytes (capped mRNA injected, α4L9′S/β2 1:1)
# Method: FIG. 1C, the agonist is choline.
# Xenopus Oocyte Injections and Electrophysiology The α4 and β2 subunits were subcloned into pAMV-PA (Nowak, et al.(1998) Methods Enzymol. 293, 504-529). Capped mRNA transcripts were prepared, and α4/β2 (2 ng, 1:1) or α4L9′/β2 (0.2-0.5 ng, 1:1) were microinjected into Xenopus oocytes. Twenty-four to seventy-two hours later, two-electrode voltage clamp recordings were made in solutions containing zero […].
# Chimeric males from the resulting two mouse lines, neo-intact and neo-deleted, were bred to C57BL/6 females to generate animals heterozygous for the mutation, and mice were tested for the mutation by sequencing of genomic DNA (FIG. 1F).
# α4β2 receptors = settings: rats, Felix and Levin (1997); cited from earlier work
# [2] = test system: WT and heterozygous (het) neo-intact mutants; test: Ambulation (locomotion) of WT and heterozygous neo-intact mice after drug injection; format: in vivo, mouse
# nAChRs = settings: Damaj, et al. (1999); cited from earlier work
# [3] = test system: heterozygous L9′S α4 and wild type mice; test: Behavioral scoring of nicotine-induced seizure activity and Straub tail; format: in vivo, mouse
# Text: To pharmacologically characterize the L9′S mutation effects on seizure induction in the α4 mice behavioral responses to pharmacologic stimulation were videotaped and scored.
# heterozygous and WT mice = settings: nicotine 0.1 mg/kg
# Text: Mouse electroencephalography can also be used to examine the susceptibility of transgenic mice to seizures. A surgical and electrophysiological rig that allows simultaneous video-electroencephalographic (EEG) recordings in free moving animals can be used. For EEG electrode implants, mice are anesthetized with a ketamine-xylazine mixture, 0.2 mm-diameter tungsten wire electrodes are positioned through drilled holes in the cranium in a twisted pair configuration and placed stereotactically within different regions of the brain. A three-pin microconnector (ground electrode plus two recording electrodes) is cemented to the skull surface. Following surgery, mice are allowed to recover for 48 hours.
# [4] = test system: neurons from transgenic L9′S and WT mice; settings: 10 μM nicotine
# Text: The paradigms described above can be implemented in slices derived from other brain areas such as the cortex and the midbrain. Large inhibitory and excitatory potentials can be recorded from pyramidal cells in cortical slices (Hasselmo and Barkai (1995). J. Neurosci 15, 6592-604).
# [5] = test system: cells in acute midbrain slices from α4 mutant heterozygous and wild type animals; test: Electrophysiology on acute midbrain slices; format: cell-based, mouse; settings: heterozygous vs wild type
# Text: Electrophysiological studies on brain slices derived from transgenic α4 mice. Slices obtained from frontal cerebral cortex, hippocampus, and midbrain can be used for field and intracellular recordings. Field recordings serve to determine whether various compounds cause or block synchronized firing in these neuronal ensembles. Whole-cell patch recordings provide information regarding activation and/or desensitization of nAChRs in individual neurons when exposed to various agonists and antagonists, as well as the effects of these compounds on firing rates. Because interneurons express most of the α4 receptors, recordings from interneurons and IPSC's in pyramidal cells are useful for study.
# T1 sequence (P09483 31-630 L285S): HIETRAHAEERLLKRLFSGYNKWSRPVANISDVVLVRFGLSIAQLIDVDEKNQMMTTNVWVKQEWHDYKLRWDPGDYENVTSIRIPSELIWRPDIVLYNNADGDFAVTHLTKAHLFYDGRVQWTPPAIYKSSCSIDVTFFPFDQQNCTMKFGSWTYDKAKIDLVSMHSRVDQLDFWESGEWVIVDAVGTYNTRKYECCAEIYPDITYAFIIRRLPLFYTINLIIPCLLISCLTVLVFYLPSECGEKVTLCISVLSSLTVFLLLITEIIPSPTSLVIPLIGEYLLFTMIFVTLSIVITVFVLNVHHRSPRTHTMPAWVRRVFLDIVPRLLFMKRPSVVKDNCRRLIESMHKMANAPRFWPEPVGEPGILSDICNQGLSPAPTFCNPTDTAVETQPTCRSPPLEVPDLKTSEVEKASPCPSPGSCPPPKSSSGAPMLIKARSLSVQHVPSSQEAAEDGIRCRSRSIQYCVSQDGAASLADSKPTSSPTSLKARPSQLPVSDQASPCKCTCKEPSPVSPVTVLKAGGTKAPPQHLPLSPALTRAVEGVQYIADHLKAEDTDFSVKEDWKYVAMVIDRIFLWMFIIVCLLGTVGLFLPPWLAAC
# T1 sequence (P12390 25-500): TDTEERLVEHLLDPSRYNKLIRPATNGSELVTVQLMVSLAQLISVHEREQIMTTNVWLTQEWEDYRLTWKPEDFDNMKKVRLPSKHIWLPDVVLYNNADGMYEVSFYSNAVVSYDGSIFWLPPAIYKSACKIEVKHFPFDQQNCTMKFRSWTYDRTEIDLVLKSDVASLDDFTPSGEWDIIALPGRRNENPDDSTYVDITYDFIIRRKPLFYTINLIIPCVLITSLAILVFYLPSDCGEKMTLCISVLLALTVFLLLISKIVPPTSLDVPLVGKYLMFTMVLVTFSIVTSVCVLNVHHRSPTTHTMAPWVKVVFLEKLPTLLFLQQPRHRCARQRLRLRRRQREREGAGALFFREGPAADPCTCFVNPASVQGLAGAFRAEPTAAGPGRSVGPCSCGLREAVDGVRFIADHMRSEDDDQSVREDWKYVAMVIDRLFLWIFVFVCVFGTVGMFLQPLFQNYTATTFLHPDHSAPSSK
compound,measurement,setting,value
"CCN(CC)CCCCCCCCOC(=O)c1cc(OC)c(OC)c(OC)c1.Cl [8-(diethylamino)octyl 3,4,5-trimethoxyben-zoate hydrochloride]",effect on increased leakage currents in oocytes expressing α4L9′S/β2 receptor,"[1]; 500 nM, nine oocytes",blockable
"CO[C@H]1CC=C2CCN3CCC4=C(CC(=O)OC4)[C@]23C1 [DHβE, Dihydro-β-erythroidine]",seizure induction,α4β2 receptors,induce seizures
"C[C@H](N)Cc1ccccc1 [amphetamine, d-amphetamine sulfate]",locomotor response in young mice,"[2]; 5 mg/kg i.p., about 3-month-old WT and heterozygous mice",stimulated locomotion
same,locomotor response of heterozygous mice at 11 months vs 3 months,"[2]; 5 mg/kg i.p., heterozygous, 11 months of age",declines significantly; also recorded: reduced amphetamine-induced locomotion
C[N+](C)(C)CCO [choline],"activation of the mutated receptor, % of maximal values",[1]; choline about 10 μM,20%
CNC1(C)C2CCC(C2)C1(C)C (stereo not shown) [mecamylamine],block of nicotine-induced seizures,nAChRs,effective nicotine-induced seizure blocker
same,"effect on nicotine effects (seizures, Straub tail)","[3]; mecamylamine 2 mg/kg, both hets and WT",partially blocked
CN1CCCC1c1cccnc1 (stereo not shown) [nicotine],doses required for severe tonic-clonic seizures in WT animals,[3]; WT,> 10 mg/kg
same,threshold to nicotine-induced seizures in L9′S knock-in mice,[3]; summary statement,reduced threshold
same,EEG recordings of WT,heterozygous and WT mice; WT,unaffected
same,EEG response of a heterozygous mouse,heterozygous and WT mice; heterozygous,Rapid-burst discharges
same,amplitude of 6 Hz theta rhythm in a heterozygous mouse,heterozygous and WT mice; heterozygous,two-fold increased amplitude
same,response of WT-derived cells,[4]; WT,remained silent or required much larger concentrations to be activated
same,response of neurons from transgenic mice,[4]; majority of neurons,responded with spontaneous bursts
same,sensitivity of L9′S nAChRs expressed in frog oocytes to the ligand,[1]; summary statement,increased sensitivity
same,shift of the dose-response relation to the left by the Leu-9′-Ser mutation (increase in agonist sensitivity),"[1]; α4β2 receptor tested in oocytes, mutant vs WT",about 30 fold
same,effect on locomotor activity of WT mice,"[2]; nicotine 0.02 mg/kg i.p., WT mice",no significant difference; also recorded: not affected
same,effect on locomotor activity of heterozygous knock-in mice,"[2]; nicotine 0.02 mg/kg i.p., heterozygous mice, 5-15 min after injection",significant reduction of locomotor activity; also recorded: sharply reduces the level of activity
same,concentrations to which heterozygous cells respond relative to those activating receptors in wild type slices,[5],ten times lower
